Here are results for 33 compounds from ChEMBL document CHEMBL2440075, “In vitro structure-activity relationships of aplysinopsin analogs and their in vivo evaluation in the chick anxiety-depression model” (Bioorg Med Chem, 2013).

Experiment [1] concerns the target 5-hydroxytryptamine receptor 2B (Homo sapiens, UniProt P41595). The experiment in a line: Displacement of [3H]LSD from human recombinant 5HT2B receptor stably expressed in HEK cells. It counts as cell-based, HEK293. On the technique in general: Loss of bound radioactivity is the signal in a displacement assay; it reports binding, not function.
The target in experiment [2] is 5-hydroxytryptamine receptor 5A (Homo sapiens, UniProt P47898). The experiment in a line: Displacement of [3H]LSD from human recombinant 5HT5A receptor expressed in Flp-In CHO cells. It is filed as cell-based.
For experiment [3], the target named is T1, 5-hydroxytryptamine receptor 2C (Homo sapiens, UniProt P28335).
T1 sequence (P28335 whole entry): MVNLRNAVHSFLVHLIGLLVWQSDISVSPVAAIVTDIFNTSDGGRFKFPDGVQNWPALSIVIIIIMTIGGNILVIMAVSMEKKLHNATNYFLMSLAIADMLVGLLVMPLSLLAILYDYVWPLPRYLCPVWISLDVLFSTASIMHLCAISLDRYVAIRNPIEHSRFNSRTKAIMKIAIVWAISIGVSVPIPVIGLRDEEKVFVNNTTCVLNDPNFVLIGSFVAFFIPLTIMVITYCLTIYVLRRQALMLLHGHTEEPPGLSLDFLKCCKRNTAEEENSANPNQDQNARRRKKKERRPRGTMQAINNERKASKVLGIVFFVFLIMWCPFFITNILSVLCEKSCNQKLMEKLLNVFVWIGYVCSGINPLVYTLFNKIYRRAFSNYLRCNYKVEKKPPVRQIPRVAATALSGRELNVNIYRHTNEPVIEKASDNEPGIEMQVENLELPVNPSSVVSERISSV
The experiment is described as follows: Displacement of [3H]mesulergine from human recombinant 5HT2C receptor expressed in Flp-IN HEK cells. It counts as cell-based, HEK293.

For experiment [4], the target named is 5-hydroxytryptamine receptor 2A (Rattus norvegicus, UniProt P14842). The experiment in a line: Displacement of [3H]ketanserin from rat 5HT2A receptor stably expressed in 3T3 cells. It is filed as cell-based.
Experiment [5] has as its target T2, 5-hydroxytryptamine receptor 1A (Homo sapiens, UniProt P08908).
T2 sequence (P08908 whole entry): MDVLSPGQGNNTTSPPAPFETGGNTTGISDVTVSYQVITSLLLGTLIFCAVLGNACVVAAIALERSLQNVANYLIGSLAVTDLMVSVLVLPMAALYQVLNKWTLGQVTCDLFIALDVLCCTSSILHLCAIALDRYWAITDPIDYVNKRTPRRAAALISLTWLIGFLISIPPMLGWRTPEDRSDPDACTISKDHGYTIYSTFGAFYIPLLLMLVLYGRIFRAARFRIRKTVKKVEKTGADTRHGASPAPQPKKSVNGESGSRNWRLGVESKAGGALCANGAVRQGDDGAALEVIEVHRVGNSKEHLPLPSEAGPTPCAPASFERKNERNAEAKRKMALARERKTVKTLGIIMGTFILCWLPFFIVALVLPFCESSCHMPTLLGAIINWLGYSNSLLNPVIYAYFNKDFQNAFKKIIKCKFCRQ
The experiment in a line: Displacement of [3H]way100635 from human recombinant 5HT1A receptor stably expressed in CHO cells. It counts as cell-based.

For experiment [6], the target named is 5-hydroxytryptamine receptor 4 (Homo sapiens, UniProt Q13639). The experiment in a line: Displacement of [3H]GR113808 from human recombinant 5HT4 receptor.
In experiment [7] the target is 5-hydroxytryptamine receptor 1E (Homo sapiens, UniProt P28566). The experiment is described as follows: Displacement of [3H]5-HT from human recombinant 5HT1E receptor stably expressed in HEK cells. It is filed as cell-based, HEK293.
Experiment [8] addresses 5-hydroxytryptamine receptor 6 (Homo sapiens, UniProt P50406). The experiment in a line: Displacement of [3H]LSD from human recombinant 5HT6 receptor stably expressed in HEK cells. It is filed as cell-based, HEK293.

Bounds are passed on as bounds.

Sequence of 5-hydroxytryptamine receptor 1E (P28566 whole entry): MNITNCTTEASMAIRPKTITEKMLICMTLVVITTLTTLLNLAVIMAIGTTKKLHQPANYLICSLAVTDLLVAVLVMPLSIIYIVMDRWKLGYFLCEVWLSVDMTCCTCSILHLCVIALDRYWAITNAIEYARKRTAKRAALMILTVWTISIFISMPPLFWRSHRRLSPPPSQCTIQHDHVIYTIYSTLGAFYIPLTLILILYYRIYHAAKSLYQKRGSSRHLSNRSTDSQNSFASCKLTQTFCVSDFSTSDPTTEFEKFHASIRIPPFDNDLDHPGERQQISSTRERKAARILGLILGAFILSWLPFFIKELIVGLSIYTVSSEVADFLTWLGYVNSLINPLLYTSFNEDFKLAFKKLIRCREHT
Sequence of 5-hydroxytryptamine receptor 4 (Q13639 whole entry): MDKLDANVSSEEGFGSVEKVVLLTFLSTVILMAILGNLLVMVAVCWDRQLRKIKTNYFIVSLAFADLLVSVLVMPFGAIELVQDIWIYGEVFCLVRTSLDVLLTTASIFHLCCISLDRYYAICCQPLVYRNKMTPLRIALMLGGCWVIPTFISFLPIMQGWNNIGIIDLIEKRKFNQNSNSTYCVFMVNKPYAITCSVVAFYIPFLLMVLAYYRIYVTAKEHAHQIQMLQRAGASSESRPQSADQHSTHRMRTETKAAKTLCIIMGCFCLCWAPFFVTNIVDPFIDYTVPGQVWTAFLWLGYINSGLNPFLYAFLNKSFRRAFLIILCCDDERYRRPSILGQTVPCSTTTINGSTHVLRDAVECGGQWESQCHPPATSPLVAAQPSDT
Sequence of 5-hydroxytryptamine receptor 6 (P50406 whole entry): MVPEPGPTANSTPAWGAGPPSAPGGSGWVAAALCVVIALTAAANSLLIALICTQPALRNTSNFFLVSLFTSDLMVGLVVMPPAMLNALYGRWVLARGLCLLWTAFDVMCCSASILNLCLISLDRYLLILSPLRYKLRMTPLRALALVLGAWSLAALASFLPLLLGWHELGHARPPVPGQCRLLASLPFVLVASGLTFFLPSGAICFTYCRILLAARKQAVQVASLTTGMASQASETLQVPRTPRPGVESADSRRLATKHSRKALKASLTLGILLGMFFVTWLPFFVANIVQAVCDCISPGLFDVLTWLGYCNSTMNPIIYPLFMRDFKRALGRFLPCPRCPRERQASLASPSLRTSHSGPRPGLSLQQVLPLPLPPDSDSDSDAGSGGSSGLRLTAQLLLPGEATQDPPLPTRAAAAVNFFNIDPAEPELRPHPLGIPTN
Sequence of 5-hydroxytryptamine receptor 2B (P41595 whole entry): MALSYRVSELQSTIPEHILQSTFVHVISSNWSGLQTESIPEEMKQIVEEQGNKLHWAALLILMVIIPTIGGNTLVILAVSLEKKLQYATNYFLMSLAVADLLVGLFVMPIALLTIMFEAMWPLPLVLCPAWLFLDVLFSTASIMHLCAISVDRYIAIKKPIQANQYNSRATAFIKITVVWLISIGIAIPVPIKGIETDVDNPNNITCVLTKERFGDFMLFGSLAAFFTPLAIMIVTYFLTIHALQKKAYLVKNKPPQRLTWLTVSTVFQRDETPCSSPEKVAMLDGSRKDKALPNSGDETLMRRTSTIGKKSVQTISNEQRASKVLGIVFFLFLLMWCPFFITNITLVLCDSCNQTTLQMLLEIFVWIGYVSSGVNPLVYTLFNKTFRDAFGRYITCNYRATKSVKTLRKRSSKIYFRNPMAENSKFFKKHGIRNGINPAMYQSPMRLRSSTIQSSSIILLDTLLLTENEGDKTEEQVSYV
Sequence of 5-hydroxytryptamine receptor 2A (P14842 whole entry): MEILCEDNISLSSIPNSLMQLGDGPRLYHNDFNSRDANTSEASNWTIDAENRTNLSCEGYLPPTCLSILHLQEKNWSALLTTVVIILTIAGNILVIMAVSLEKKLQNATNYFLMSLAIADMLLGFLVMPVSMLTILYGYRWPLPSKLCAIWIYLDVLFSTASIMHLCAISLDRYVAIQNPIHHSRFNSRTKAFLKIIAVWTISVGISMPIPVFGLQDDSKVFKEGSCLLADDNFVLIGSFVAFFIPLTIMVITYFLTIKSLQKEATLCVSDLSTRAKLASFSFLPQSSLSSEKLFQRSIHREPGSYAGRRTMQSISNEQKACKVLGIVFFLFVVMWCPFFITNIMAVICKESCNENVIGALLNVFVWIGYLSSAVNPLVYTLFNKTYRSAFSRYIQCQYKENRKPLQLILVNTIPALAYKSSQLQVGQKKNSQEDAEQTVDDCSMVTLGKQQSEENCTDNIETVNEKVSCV
Sequence of 5-hydroxytryptamine receptor 5A (P47898 whole entry): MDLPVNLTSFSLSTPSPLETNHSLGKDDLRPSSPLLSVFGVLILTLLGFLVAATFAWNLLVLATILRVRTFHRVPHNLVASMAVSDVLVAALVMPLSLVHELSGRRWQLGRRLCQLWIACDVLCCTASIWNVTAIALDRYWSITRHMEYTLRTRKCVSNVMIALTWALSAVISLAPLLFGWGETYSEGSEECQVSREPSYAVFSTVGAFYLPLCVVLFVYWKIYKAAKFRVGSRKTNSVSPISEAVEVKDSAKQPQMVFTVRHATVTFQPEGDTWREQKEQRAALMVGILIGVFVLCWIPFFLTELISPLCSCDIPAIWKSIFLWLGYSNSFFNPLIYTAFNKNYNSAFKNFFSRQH

With `O=C1NC(=S)N/C1=C\c1c[nH]c2cc(Br)ccc12`, the Ki in experiment [1] is 2710 nM.

`CN1C(=N)N/C(=C/c2c[nH]c3cccc(Br)c23)C1=O`: the Ki in experiment [2] turned out to be 1280 nM; in experiment [3] it was 1700 nM; in experiment [1], 228 nM; in experiment [4], 8670 nM; in experiment [5], 3440 nM.

With `C/N=C1\NC(=O)/C(=C/c2c[nH]c3cc(Br)ccc23)N1`, the figures for the Ki in experiment [6], in experiment [3] and in experiment [1] were 1160 nM, 980 nM and 154 nM, respectively.

`CN1C(=N)N/C(=C/c2c[nH]c3c(Br)cccc23)C1=O`: the Ki in experiment [2] was 1550 nM; in experiment [3], 10000 nM; in experiment [1], 593 nM; in experiment [7] it was above 10000 nM; in experiment [5], 7270 nM.

In the case of `N=C1NC(=O)/C(=C\c2c[nH]c3cc(Br)ccc23)N1`, the inhibition constant (Ki) in experiment [2] is 184 nM; in experiment [3] it was 201 nM; in experiment [1] it was 269 nM; in experiment [4], 3130 nM; in experiment [7], above 10000 nM.

As for `CSC1=NC(=O)/C(=C/c2c[nH]c3cc(Br)ccc23)N1`, the Ki is 5310 nM in experiment [6], 4370 nM in experiment [3] and 1140 nM in experiment [1].

Consider `C/N=C1\NC(=O)/C(=C\c2c[nH]c3c(Br)cccc23)N1C`, for which the Ki in experiment [8] is 2310 nM; in experiment [2], 1420 nM; in experiment [3], 2210 nM; in experiment [1], 661 nM; in experiment [4], 7970 nM; in experiment [7], above 10000 nM. For the same compound, in experiment [5], the inhibitory constant (Ki) was above 10000 nM.

As to `CN1C(=N)NC(=O)/C1=C\c1c[nH]c2c(Br)cccc12`, the Ki was 1320 nM in experiment [2]; 4130 nM in experiment [3]; 1420 nM in experiment [1]; above 10000 nM in experiment [4]; above 10000 nM in experiment [7].

Consider `C/N=C1\N(C)C(=O)/C(=C\c2c[nH]c3cc(Br)ccc23)N1C`, for which the Ki in experiment [2] is 4680 nM; in experiment [3], 1240 nM; in experiment [1] it was 2470 nM; in experiment [5], above 10000 nM.

In the case of `N=C1NC(=O)/C(=C\c2c[nH]c3ccccc23)N1`, the Ki in experiment [2] came to 101 nM; in experiment [3] it was 349 nM; in experiment [1], 232 nM; in experiment [4] it was 1170 nM.

As to `CN1C(=N)NC(=O)/C1=C\c1c[nH]c2ccccc12`, the values for the Ki in experiment [3] and in experiment [1] were 4780 nM and 964 nM, respectively.

With `C/N=C1\NC(=O)/C(=C\c2c[nH]c3ccccc23)N1C` [ISOPLYSIN A], the Ki in experiment [3] stood at 2350 nM; in experiment [1], 716 nM.

`C/N=C1\NC(=O)/C(=C/c2c[nH]c3c(Br)cccc23)N1`: the Ki came to 3320 nM in experiment [2]; 603 nM in experiment [6]; 678 nM in experiment [3]; 353 nM in experiment [1]; 3590 nM in experiment [4].

For the compound `C/N=C1\NC(=O)/C(=C\c2c[nH]c3cc(Br)ccc23)N1C`, the Ki was found to be 2280 nM in experiment [3] and 489 nM in experiment [1].

With `C/N=C1\NC(=O)/C(=C/c2c[nH]c3cccc(Br)c23)N1`, the Ki in experiment [8] was found to be 3730 nM; in experiment [2], 3370 nM; in experiment [6], 472 nM; in experiment [3], 80 nM; in experiment [1], 50 nM; in experiment [4] it was 470 nM.

Regarding `C/N=C1/N/C(=C/c2c[nH]c3c(Br)cccc23)C(=O)N1C`, the inhibition constant Ki in experiment [3] was 10000 nM; in experiment [1], 839 nM; in experiment [7], above 10000 nM.

Regarding `CN1C(=N)N(C)/C(=C/c2c[nH]c3cc(Br)ccc23)C1=O`, the Ki in experiment [2] is 9620 nM; in experiment [3] it was 1700 nM; in experiment [1], 2670 nM; in experiment [5], above 10000 nM.

Regarding `C/N=C1\NC(=O)/C(=C/c2c[nH]c3ccccc23)N1`, the Ki is 928 nM in experiment [6], 970 nM in experiment [3] and 287 nM in experiment [1].

`O=C1NC(=S)N/C1=C\c1c[nH]c2ccc(Br)cc12`: the inhibitory constant (Ki) in experiment [3] amounted to 4350 nM; in experiment [1], 1680 nM; in experiment [5], 2750 nM.

For the compound `C/N=C1/N/C(=C/c2c[nH]c3cc(Br)ccc23)C(=O)N1C`, the inhibition constant (Ki) is 10000 nM in experiment [3], 1270 nM in experiment [1] and above 10000 nM in experiment [7].

In the case of `C/N=C1\NC(=O)/C(=C/c2c[nH]c3ccc(Br)cc23)N1`, the inhibition constant (Ki) is 860 nM in experiment [8]; 226 nM in experiment [6]; 426 nM in experiment [3]; 93 nM in experiment [1]; 676 nM in experiment [4].

Take `CSC1=NC(=O)/C(=C/c2c[nH]c3ccc(Br)cc23)N1`: the inhibition constant Ki in experiment [6] worked out at 3800 nM; in experiment [3], 2090 nM; in experiment [1], 1350 nM.

Regarding `O=C1NC(=S)N/C1=C\c1c[nH]c2cccc(Br)c12`, the Ki in experiment [6] came to 2360 nM; in experiment [3] it was 1870 nM; in experiment [1] it was 369 nM.

For `O=C1NC(=S)N/C1=C\c1c[nH]c2c(Br)cccc12`, the inhibition constant (Ki) in experiment [6] turned out to be 2210 nM.

Consider `CSC1=NC(=O)/C(=C/c2c[nH]c3c(Br)cccc23)N1`, for which the Ki in experiment [6] is 2350 nM; in experiment [1], 993 nM.

For `CN1C(=N)NC(=O)/C1=C\c1c[nH]c2cc(Br)ccc12`, the Ki in experiment [3] was 3880 nM; in experiment [1] it was 1380 nM.

For `CN1C(=N)N/C(=C/c2c[nH]c3ccccc23)C1=O`, the Ki in experiment [3] is 10000 nM; in experiment [1] it was 1280 nM; in experiment [7], above 10000 nM.

For `C/N=C1/N/C(=C/c2c[nH]c3ccccc23)C(=O)N1C`, the inhibitory constant (Ki) is 10000 nM in experiment [3], 5060 nM in experiment [1] and above 10000 nM in experiment [7].

In the case of `CN1C(=N)NC(=O)/C1=C\c1c[nH]c2ccc(Br)cc12`, the Ki in experiment [3] is 2450 nM; in experiment [1] it was 852 nM; in experiment [7], above 10000 nM; in experiment [5], 3210 nM.

On to `N=C1NC(=O)/C(=C\c2c[nH]c3c(Br)cccc23)N1`, for which the inhibition constant Ki in experiment [8] is 1400 nM; in experiment [2], 112 nM; in experiment [3], 841 nM; in experiment [1], 457 nM; in experiment [4] it was 2150 nM; in experiment [7], above 10000 nM.

`CSC1=NC(=O)/C(=C/c2c[nH]c3cccc(Br)c23)N1`: the Ki in experiment [6] came to 1060 nM; in experiment [3] it was 885 nM; in experiment [1] it was 780 nM.

Consider `N=C1NC(=O)/C(=C\c2c[nH]c3cccc(Br)c23)N1`, for which the inhibition constant (Ki) in experiment [2] is 123 nM; in experiment [3] it was 604 nM; in experiment [1], 447 nM; in experiment [4] it was 4620 nM.

Consider `CN1C(=N)N/C(=C/c2c[nH]c3cc(Br)ccc23)C1=O`, for which the Ki in experiment [2] is 5360 nM; in experiment [3], 1920 nM; in experiment [1], 190 nM; in experiment [4], 4160 nM; in experiment [5] it was above 10000 nM.

By Ki is commonly meant a dissociation constant, usually derived from enzyme kinetics or from competition with a known ligand.
